According to ChEMBL document CHEMBL1201862, “PubChem BioAssay data set” (2004):
Calls of active or inactive are those of the source.

Assays:
[1] = biological target: T1, G-protein coupled receptor 35 (Homo sapiens, UniProt Q9HC97); assay: SAR analysis of Agonists of the GPR35 Receptor using an Image-Based Assay - Set 2. [Related pubchem assays (depositor defined):AID2013, AID2026]; format: functional
[2] = biological target: T1, G-protein coupled receptor 35; assay: SAR analysis of Antagonists of the GPR35 Receptor using an Image-Based Assay - Set 3. [Related pubchem assays (depositor defined):AID2013, AID2026]; format: functional
Cannabinoid receptor 2 [3] = biological target: T2, Cannabinoid receptor 2 (Homo sapiens, UniProt P34972); assay: SAR analysis of agonists of the Cannabinoid Receptor 2 using an Image-Based Assay. [Related pubchem assays (depositor defined):AID2013, AID2026]; format: functional
T2 sequence (P34972 whole entry): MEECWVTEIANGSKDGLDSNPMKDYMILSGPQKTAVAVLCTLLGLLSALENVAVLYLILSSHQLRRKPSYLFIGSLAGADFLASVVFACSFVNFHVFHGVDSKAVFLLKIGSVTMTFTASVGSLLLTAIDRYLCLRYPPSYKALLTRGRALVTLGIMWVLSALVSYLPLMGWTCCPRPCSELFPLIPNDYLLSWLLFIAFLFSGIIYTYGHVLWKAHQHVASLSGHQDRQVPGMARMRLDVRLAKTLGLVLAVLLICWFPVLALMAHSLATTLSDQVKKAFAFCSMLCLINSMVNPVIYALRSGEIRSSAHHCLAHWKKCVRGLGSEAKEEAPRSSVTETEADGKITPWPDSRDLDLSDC

Cytochrome P450 3A4 = Cytochrome P450 3A4 (Homo sapiens, UniProt P08684);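 note: CYP3A4 tested as one member of a cytochrome P450 panel screen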
Cytochrome P450 3A4, sequence (P08684 whole entry): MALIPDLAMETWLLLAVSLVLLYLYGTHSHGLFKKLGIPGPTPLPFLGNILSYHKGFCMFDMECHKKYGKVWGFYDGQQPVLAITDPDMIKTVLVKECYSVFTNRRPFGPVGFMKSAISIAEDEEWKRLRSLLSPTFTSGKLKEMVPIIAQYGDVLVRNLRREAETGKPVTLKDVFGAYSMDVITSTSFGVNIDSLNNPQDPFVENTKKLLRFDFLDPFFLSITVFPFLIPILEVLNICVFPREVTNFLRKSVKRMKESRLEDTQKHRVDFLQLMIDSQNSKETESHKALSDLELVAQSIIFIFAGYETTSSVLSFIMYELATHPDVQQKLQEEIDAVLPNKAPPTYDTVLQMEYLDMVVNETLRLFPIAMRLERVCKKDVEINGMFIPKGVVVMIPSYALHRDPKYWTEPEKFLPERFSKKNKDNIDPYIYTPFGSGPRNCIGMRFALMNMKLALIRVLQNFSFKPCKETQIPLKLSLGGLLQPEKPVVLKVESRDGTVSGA

Cannabinoid receptor 1 [4] = biological target: T3, Cannabinoid receptor 1 (Homo sapiens, UniProt P21554); assay: SAR analysis of antagonists of the Cannabinoid Receptor 1 using an Image-Based Assay - Set 2. [Related pubchem assays (depositor defined):AID2013, AID2026]; format: functional
T3 sequence (P21554 whole entry): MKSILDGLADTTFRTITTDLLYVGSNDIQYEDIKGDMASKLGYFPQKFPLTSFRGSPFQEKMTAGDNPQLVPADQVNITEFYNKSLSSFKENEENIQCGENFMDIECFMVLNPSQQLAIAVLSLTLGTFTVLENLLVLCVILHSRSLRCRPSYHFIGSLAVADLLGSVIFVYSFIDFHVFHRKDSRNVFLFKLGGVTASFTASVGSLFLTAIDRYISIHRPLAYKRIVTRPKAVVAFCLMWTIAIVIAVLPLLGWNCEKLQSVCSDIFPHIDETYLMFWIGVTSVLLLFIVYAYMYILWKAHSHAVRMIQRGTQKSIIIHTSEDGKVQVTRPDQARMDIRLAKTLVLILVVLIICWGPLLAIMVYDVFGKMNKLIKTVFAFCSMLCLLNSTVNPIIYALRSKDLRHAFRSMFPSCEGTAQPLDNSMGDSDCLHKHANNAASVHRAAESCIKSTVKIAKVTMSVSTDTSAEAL

Cannabinoid receptor 2 [5] = biological target: T2, Cannabinoid receptor 2; assay: SAR analysis of antagonists of the Cannabinoid Receptor 2 using an Image-Based Assay. [Related pubchem assays (depositor defined):AID2013, AID2026]; format: functional
[6] = biological target: T4, G-protein coupled receptor 55 (Homo sapiens, UniProt Q9Y2T6); assay: inhibition of LPI-stimulated GPR55 beta-arrestin translocation – imaging, U2OS, beta-arrestin-GFP, LPI agonist, primary screen (AID 2013); format: functional;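 note: antagonist potency measured as reduced agonist-driven arrestin aggregation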
T4 sequence (Q9Y2T6 whole entry): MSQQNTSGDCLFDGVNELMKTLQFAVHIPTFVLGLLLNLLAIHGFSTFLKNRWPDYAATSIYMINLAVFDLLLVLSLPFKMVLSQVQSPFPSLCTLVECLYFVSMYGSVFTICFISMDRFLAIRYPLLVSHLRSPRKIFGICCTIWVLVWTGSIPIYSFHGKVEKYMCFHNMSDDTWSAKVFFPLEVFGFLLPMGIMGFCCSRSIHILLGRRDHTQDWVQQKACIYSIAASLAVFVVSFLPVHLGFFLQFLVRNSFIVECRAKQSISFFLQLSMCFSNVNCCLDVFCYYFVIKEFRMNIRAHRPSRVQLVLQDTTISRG

[7] = biological target: T4, G-protein coupled receptor 55; assay: blockade of LPI-induced GPR55 arrestin translocation – imaging, U2OS, beta-arrestin-GFP, LPI agonist, set 2, SAR follow-up (AID 2820); format: functional
Cytochrome P450 2C19 = Cytochrome P450 2C19 (Homo sapiens, UniProt P33261); assay: Cytochrome panel assay with activity outcomes. Panel member name: p450-cyp2c19 Compounds with AC50 equal or less than 10 uM are considered active; format: functional; details: read-out: AC50
Cytochrome P450 2C19, sequence (P33261 whole entry): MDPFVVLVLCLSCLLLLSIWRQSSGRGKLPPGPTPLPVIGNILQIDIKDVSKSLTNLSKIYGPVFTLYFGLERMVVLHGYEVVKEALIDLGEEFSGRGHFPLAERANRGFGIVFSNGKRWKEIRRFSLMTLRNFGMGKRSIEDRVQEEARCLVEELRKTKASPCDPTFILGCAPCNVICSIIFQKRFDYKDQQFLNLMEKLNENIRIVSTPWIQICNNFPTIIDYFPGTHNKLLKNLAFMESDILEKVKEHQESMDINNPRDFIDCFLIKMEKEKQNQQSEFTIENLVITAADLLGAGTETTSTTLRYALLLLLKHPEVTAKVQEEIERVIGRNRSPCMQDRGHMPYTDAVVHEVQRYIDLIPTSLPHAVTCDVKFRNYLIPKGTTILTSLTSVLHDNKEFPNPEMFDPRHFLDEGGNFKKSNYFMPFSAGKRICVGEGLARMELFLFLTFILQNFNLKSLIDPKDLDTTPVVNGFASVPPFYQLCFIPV

Cannabinoid receptor 1 [8] = biological target: T3, Cannabinoid receptor 1; assay: SAR analysis of agonists of the Cannabinoid Receptor 1 using an Image-Based Assay - Set 2. [Related pubchem assays (depositor defined):AID2013, AID2026]; format: functional
[9] = Luminescent dose response cell-based high throughput screening assay for inhibitors of the Janus kinase 2 mutant JAK2V617F. [Related pubchem assays: 1446 (Primary screen.), 1521 (Confirmation assay.), 1486 (Counter screen.)]; format: functional
Protein RecA = biological target: T5, Protein RecA (Mycobacterium tuberculosis, UniProt P9WHJ3); assay: Fluorescence Cell-Free Homogeneous Dose Retest to Identify Inhibitors of RecA-Intein Splicing Activity. [Related pubchem assays (depositor defined):AID2097, AID2223, AID489010, AID492950]; format: functional
T5 sequence (P9WHJ3 whole entry): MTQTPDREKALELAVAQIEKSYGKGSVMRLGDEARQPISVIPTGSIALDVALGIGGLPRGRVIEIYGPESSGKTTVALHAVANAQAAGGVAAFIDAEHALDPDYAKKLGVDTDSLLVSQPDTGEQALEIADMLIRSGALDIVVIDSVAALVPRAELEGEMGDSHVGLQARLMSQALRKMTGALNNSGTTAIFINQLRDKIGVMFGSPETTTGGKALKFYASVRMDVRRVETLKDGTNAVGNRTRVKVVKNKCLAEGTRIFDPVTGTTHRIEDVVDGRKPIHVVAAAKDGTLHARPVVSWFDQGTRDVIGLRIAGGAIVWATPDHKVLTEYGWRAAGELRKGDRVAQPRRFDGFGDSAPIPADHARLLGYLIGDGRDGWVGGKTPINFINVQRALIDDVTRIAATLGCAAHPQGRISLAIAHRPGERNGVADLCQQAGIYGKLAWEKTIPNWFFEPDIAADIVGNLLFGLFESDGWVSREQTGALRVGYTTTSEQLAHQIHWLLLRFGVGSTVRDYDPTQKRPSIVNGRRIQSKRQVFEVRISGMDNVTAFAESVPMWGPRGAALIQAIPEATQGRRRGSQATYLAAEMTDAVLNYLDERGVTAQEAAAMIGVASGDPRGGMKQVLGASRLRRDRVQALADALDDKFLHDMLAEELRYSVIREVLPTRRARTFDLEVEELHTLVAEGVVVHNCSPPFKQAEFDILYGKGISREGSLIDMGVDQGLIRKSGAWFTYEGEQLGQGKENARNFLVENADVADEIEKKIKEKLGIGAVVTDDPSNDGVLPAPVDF

[10] = biological target: Beta-2 adrenergic receptor (Homo sapiens, UniProt P07550); assay: ADRB2 activation measured by internalization – cell-based, FAP fluorogen, flow cytometry, cherry pick 1, dose response (AID 588763); format: functional
Beta-2 adrenergic receptor, sequence (P07550 whole entry): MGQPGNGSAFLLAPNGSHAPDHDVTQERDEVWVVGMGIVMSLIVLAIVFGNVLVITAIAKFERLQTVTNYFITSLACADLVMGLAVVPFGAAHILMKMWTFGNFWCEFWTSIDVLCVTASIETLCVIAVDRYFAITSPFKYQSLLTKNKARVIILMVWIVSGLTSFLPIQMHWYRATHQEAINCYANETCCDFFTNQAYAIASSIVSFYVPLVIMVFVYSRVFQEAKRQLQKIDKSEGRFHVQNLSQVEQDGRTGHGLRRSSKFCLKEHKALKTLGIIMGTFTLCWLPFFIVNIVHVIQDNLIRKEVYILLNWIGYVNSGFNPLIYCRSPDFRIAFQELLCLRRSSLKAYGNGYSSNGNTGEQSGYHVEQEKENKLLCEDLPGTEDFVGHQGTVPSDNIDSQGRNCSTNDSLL

[11] = biological target: T6, Replicative DNA helicase DnaB (Mycobacterium tuberculosis, UniProt P9WMR3); assay: DnaB intein splicing inhibitors, dose response, biochemical, cell-free fluorescence (AID 449749); format: functional
T6 sequence (P9WMR3 whole entry): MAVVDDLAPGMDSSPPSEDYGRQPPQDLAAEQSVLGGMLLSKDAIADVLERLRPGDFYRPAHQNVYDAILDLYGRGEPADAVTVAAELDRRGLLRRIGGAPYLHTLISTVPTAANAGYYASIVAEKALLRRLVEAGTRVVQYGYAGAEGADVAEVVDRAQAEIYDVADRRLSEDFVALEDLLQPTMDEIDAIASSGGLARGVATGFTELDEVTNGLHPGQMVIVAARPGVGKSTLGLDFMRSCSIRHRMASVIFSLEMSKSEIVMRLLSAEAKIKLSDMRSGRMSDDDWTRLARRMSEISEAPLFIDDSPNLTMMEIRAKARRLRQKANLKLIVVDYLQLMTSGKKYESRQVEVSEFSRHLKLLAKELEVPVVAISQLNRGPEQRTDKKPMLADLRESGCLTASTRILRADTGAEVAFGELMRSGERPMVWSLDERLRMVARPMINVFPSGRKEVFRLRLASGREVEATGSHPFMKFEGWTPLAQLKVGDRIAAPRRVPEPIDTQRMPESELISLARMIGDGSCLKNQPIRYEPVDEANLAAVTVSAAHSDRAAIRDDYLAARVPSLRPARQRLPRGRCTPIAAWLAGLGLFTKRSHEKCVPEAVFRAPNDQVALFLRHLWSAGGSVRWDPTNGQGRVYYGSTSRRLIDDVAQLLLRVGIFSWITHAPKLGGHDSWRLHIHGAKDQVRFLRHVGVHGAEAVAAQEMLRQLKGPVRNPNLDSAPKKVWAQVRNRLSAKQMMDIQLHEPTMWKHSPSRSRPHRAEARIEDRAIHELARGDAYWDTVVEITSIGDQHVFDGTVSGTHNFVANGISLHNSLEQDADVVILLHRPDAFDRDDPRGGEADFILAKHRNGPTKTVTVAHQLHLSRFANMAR

[12] = Intein inhibitors as potential Tuberculosis drugs, a cytotoxicity screen. [Related pubchem assays (depositor defined):AID2221, AID2223, AID434968, AID435010, AID449749, AID449750, AID489010]; format: functional
[13] = viability loss in HEK293T cells – cell-based, cherry-picks, cytotoxicity control for HIV Vif inhibitor project, dose response (AID 652208); format: functional
HEK293 = assay: EBV LMP1 TES2 canonical NF-kB signalling blockers – cell-based, HEK293, luciferase, cherry-pick, dose response (AID 588343); format: functional; details: Homo sapiens
Coagulation factor XII = biological target: T7, Coagulation factor XII (Homo sapiens, UniProt P00748); assay: Factor XIIa Dose Response Confirmation from Single Well HTS. [Related pubchem assays (depositor defined):AID701]; format: functional
T7 sequence (P00748 whole entry): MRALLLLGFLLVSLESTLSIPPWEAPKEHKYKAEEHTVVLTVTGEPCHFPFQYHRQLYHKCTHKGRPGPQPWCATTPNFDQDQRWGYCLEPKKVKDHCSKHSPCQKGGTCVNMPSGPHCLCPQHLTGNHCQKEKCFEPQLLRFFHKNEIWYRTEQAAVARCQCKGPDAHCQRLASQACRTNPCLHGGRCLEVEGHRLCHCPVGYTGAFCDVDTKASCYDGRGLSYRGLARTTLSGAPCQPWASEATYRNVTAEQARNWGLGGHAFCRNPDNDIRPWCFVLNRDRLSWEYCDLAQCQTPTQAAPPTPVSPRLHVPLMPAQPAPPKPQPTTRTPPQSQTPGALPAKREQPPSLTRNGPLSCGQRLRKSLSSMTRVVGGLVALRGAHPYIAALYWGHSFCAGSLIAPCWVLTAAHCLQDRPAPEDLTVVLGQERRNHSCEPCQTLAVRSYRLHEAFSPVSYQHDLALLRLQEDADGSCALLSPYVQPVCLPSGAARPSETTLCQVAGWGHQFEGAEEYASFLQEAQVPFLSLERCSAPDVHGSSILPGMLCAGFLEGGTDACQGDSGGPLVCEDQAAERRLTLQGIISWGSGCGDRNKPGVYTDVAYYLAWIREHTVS

[14] = biological target: T1, G-protein coupled receptor 35; assay: SAR analysis of Agonists of the GPR35 Receptor using an Image-Based Assay - Set 4. [Related pubchem assays (depositor defined):AID2013, AID2026]; format: functional
Cannabinoid receptor 1 [15] = biological target: T3, Cannabinoid receptor 1; assay: SAR analysis of antagonists of the Cannabinoid Receptor 1 using an Image-Based Assay - Set 4. [Related pubchem assays (depositor defined):AID2013, AID2026]; format: functional
[16] = biological target: T4, G-protein coupled receptor 55; assay: SAR Analysis of Selective Antagonists of GPR55 using an Image-Based Assay - Set 4. [Related pubchem assays (depositor defined):AID2013, AID2026]; format: functional
Cannabinoid receptor 2 [17] = biological target: T2, Cannabinoid receptor 2; assay: SAR analysis of agonists of the Cannabinoid Receptor 2 using an Image-Based Assay - Set 3. [Related pubchem assays (depositor defined):AID2013, AID2026]; format: functional
Cannabinoid receptor 1 [18] = biological target: T3, Cannabinoid receptor 1; assay: SAR analysis of agonists of the Cannabinoid Receptor 1 using an Image-Based Assay - Set 4. [Related pubchem assays (depositor defined):AID2013, AID2026]; format: functional
[19] = biological target: T1, G-protein coupled receptor 35; assay: SAR analysis of Antagonists of the GPR35 Receptor using an Image-Based Assay - Set 6. [Related pubchem assays (depositor defined):AID2013, AID2026]; format: functional
Cannabinoid receptor 2 [20] = biological target: T2, Cannabinoid receptor 2; assay: SAR analysis of antagonists of the Cannabinoid Receptor 2 using an Image-Based Assay - Set 3. [Related pubchem assays (depositor defined):AID2013, AID2026]; format: functional
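Throughout, for CC50: cells exposed to compound for 72 hours before luminescence readout.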

T1 sequence (Q9HC97 whole entry): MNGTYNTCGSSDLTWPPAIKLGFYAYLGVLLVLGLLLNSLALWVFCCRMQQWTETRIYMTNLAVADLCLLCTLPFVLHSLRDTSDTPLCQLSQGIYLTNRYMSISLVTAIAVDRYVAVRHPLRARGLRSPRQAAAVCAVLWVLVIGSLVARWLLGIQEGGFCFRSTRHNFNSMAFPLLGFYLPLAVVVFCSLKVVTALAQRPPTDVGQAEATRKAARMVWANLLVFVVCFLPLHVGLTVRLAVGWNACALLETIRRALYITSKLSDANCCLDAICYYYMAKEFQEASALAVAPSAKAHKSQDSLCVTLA

Cc1cc(C)c2nc(-c3ccccn3)cc(C(=O)Nc3ccc(S(=O)(=O)Nc4cc(C)on4)cc3)c2c1
EC50 [1]: > 32 µM (inactive)
IC50 [2]: > 32 µM (inactive)
EC50 (Cannabinoid receptor 2 [3]): > 32 µM (inactive)
AC50 (Cytochrome P450 3A4): 17.8 µM (inconclusive)
IC50 (Cannabinoid receptor 1 [4]): > 32 µM (inactive)
IC50 (Cannabinoid receptor 2 [5]): > 32 µM (inactive)
IC50 [6]: 1.82 µM (active)
IC50 [7]: 0.709 µM (active)
AC50 (Cytochrome P450 2C19): 17.8 µM (inconclusive)
EC50 (Cannabinoid receptor 1 [8]): > 32 µM (inactive)

Clc1ccc(-n2nnnc2Sc2ncnc3sccc23)cc1
IC50 [9]: 0.787 µM (active)
EC50 (Protein RecA): 1.03 µM (active)
EC50 [10]: 10.5 µM (inactive)
AC50 [11]: 3.76 µM (active)
CC50 [12]: 9.7 µM (active)
AC50 [13]: 10.8 µM (active)
AC50 (HEK293): 10.7 µM (active)

N#Cc1ccc(NC(=O)COC(=O)CNC(=O)C2CCCCC2)cc1
IC50 (Coagulation factor XII): > 50 µM (inactive)

Cc1nnc(-c2cccc3ccccc23)c2cn(-c3cccc(Br)c3)nc12
EC50 [14]: > 32 µM (inactive)
IC50 (Cannabinoid receptor 1 [15]): 0.661 µM (active)
IC50 [16]: 5.27 µM (active)
EC50 (Cannabinoid receptor 2 [17]): > 32 µM (inactive)
EC50 (Cannabinoid receptor 1 [18]): > 32 µM (inactive)
IC50 [19]: 28.2 µM (inactive)
IC50 (Cannabinoid receptor 2 [20]): 3.87 µM (active)
